In patent publication US9273028B2, “Heterocyclic tyrosine kinase inhibitors” (Biogen MA Inc., priority 2010, dated 2016):

How the values were obtained:
Assay type in all cases: biochemical
BTK = target: T1, BTK (Homo sapiens, UniProt Q06187); assay: In vitro BTK kinase assay (BTK-POLYGAT-LS); conditions: IC50 (10 uM ATP)
T1 construct: purchased Upstate 14-552
Method: In vitro BTK Kinase Assay
The purpose of the BTK in vitro assay is to determine compound potency against BTK through the measurement of IC50. […] For a typical assay, a 24 μL aliquot of a ATP/peptide master mix (final concentration; ATP 10 μM, polyGAT 100 nM) in kinase buffer (10 mM Tris-HCl pH 7.5, 10 mM MgCl2, 200 μM Na3PO4, 5 mM DTT, 0.01% Triton X-100, and 0.2 mg/ml casein) is added to each well. […] The assay is incubated for 30 minutes before being stopped with 28 μL of a 50 mM EDTA solution. […] The plate is covered and incubated for 45 minutes at room temperature.

Itk = target: T2, Itk (Homo sapiens, UniProt Q08881); assay: Itk kinase selectivity assay (Example 142 procedure, Table 3 modifications); conditions: ATP 10 μM
T2 construct: purchased Carna Bioscience 08-181
T2 sequence (Q08881 1-620): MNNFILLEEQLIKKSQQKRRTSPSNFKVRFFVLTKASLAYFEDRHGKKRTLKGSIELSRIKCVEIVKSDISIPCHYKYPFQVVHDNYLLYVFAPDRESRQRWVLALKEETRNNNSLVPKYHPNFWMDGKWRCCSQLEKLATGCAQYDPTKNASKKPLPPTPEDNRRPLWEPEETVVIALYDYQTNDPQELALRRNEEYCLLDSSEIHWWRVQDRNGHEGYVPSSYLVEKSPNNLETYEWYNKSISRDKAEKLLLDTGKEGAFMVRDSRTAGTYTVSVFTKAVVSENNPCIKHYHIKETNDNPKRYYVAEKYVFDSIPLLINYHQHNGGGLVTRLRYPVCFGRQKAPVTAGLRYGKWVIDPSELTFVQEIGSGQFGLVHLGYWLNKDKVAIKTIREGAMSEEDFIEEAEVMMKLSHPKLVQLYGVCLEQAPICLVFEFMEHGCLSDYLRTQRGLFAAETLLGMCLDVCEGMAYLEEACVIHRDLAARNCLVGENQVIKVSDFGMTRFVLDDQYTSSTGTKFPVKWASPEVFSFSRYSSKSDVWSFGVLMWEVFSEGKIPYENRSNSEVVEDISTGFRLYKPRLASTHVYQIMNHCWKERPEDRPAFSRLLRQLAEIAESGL
Method: (§1) The purpose of the Tec in vitro assay is to determine compound potency against Tec through the measurement of IC50. Compound inhibition is measured after monitoring the amount of phosphorylation of a fluorescein-labeled polyGT peptide (Invitrogen PV3610) in the presence of active Tec enzyme (Carna Biosciences 08-182), ATP, and inhibitor. The Tec kinase reaction was done in a black 96 well plate (costar 3694). For a typical assay, a 29 μL aliquot of a ATP/peptide master mix (final concentration; ATP 25 μM, polyGT 100 nM) in kinase buffer (10 mM Tris-HCl pH 7.5, 10 mM MgCl2, 200 μM Na3PO4, 5 mM DTT, 0.01% Triton X-100, and 0.2 mg/ml casein) is added to each well. Next, 1 μL of a 3-fold, 50× compound titration in 100% DMSO solvent is added, followed by adding 20 uL of Tec enzyme mix in 1× kinase buffer (with a final concentration of 0.125 nM). The assay is incubated for 15 minutes before being stopped with 5 μl, of a 220 mM EDTA solution. Aliquots (5 μL) of the kinase reaction are transferred to a low volume white 384 well plate (Corning 3674), and 5 μL of a 2× detection buffer (Invitrogen PV3574, with 2 nM Tb-PY20 antibody, Invitrogen PV3552) is added. The plate is covered and incubated for 45 minutes at room temperature. Time resolved fluorescence (TRF) on Molecular Devices M5 (332 nm excitation; 488 nm emission; 518 nm fluorescein emission) is measured.
(§2) Using the procedure described in Example 142, with the modifications shown in Table 3, selectivity for Itk, Txk, and Lck was measured.

Tec = target: T3, Tec (Homo sapiens, UniProt P42680); assay: In vitro Tec kinase selectivity assay (Tec-POLYGT-LS); conditions: ATP 25 μM
T3 construct: purchased Carna Biosciences 08-182
T3 sequence (P42680 1-631): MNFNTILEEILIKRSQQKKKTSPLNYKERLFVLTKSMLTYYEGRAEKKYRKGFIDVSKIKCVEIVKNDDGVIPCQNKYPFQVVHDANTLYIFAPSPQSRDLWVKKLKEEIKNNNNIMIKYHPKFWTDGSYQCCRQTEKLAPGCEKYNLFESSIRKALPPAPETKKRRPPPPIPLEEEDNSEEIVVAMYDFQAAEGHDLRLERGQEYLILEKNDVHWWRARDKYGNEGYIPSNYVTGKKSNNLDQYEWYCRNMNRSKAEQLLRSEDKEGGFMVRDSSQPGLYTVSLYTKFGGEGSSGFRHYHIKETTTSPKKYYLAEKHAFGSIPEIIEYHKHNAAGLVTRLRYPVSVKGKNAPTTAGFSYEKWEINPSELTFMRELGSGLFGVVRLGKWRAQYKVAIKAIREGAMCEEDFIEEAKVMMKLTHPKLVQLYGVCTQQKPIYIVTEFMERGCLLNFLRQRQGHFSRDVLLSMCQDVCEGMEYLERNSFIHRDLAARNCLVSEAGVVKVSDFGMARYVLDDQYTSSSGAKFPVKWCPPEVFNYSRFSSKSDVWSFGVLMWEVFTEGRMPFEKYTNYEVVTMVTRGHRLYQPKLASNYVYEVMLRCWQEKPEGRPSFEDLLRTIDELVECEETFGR
Method: In Vitro Tec Kinase Selectivity Assay
as §1

Txk = target: T4, Txk (Homo sapiens, UniProt P42681); assay: Txk kinase selectivity assay (Example 142 procedure, Table 3 modifications); conditions: ATP 100 μM
T4 construct: purchased Carna Bioscience 08-183
T4 sequence (P42681 1-527): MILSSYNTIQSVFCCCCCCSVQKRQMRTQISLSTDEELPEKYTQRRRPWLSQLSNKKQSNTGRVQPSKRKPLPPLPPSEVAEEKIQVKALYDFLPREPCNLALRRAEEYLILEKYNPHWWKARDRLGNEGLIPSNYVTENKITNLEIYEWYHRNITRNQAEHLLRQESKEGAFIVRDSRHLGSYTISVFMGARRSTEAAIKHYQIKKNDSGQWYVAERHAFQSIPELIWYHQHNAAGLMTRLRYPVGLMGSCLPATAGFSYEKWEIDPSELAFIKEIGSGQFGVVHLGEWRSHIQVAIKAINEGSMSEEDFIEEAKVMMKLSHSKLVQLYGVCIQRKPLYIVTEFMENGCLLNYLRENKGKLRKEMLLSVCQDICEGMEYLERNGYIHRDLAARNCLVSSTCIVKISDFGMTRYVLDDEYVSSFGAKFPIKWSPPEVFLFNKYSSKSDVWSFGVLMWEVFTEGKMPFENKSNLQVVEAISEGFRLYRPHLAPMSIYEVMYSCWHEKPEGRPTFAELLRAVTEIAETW
Method: as §1, §2

Lck = target: T5, Lck (Homo sapiens, UniProt P06239); assay: Lck kinase selectivity assay (Example 142 procedure, Table 3 modifications); conditions: ATP 5 μM
T5 construct: purchased Carna Bioscience 08-170
T5 sequence (P06239 whole entry): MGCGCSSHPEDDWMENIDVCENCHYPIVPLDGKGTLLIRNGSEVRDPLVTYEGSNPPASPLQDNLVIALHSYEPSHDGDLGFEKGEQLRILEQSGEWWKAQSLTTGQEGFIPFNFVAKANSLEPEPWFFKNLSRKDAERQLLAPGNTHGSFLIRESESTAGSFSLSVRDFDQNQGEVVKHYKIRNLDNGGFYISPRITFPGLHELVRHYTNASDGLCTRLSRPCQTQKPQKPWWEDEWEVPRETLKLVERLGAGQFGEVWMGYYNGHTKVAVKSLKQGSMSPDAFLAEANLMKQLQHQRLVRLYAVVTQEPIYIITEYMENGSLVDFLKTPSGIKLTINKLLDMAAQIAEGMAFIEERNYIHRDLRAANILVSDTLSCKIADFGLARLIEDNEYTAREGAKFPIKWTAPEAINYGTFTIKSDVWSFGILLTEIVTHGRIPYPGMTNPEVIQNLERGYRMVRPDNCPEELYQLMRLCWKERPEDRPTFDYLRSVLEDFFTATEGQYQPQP
Method: as §1, §2

T1 sequence (Q06187 whole entry): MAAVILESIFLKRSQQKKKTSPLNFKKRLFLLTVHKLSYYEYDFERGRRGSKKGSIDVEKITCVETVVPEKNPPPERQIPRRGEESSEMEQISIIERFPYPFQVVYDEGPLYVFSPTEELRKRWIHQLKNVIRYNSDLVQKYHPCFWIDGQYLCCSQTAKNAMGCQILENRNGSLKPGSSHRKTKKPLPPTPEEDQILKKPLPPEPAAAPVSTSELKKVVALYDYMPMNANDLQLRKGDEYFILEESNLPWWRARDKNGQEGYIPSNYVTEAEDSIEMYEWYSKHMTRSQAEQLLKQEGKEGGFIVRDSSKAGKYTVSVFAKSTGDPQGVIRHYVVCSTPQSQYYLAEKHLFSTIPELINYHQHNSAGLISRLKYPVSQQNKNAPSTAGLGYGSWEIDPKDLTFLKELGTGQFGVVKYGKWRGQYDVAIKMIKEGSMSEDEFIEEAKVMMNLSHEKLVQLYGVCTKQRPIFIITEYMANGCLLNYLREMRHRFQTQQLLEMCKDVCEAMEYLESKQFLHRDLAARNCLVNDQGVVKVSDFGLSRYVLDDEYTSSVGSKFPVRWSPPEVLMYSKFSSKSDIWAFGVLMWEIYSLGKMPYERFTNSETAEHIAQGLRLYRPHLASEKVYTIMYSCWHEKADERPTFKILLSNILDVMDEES

| Structure (SMILES) | IC50 (BTK) | also measured |
| --- | --- | --- |
| O=C(CNc1cc(F)cc(Cl)c1)N1CCCC(Nc2ncnc3[nH]ccc23)C1C(F)(F)F (stereo not shown) [Compound 23] | < 100 nM | IC50 (Itk): 1000 to 10000 nM; IC50 (Tec): 100 to 999 nM |
| C[C@@H]1[C@H](Nc2ncnc3[nH]ncc23)CCCN1C(=O)CNc1cc(F)cc(Cl)c1 [Compound 25] | < 100 nM | IC50 (Itk): 100 to 999 nM; IC50 (Tec): 100 to 999 nM |
| C[C@@H]1[C@H](Nc2ncnc3[nH]ncc23)CCCN1C(=O)CNc1cc(Cl)cc(Cl)c1 [Compound 29] | < 100 nM | IC50 (Itk): 100 to 999 nM; IC50 (Tec): < 100 nM |
| CC1C(Nc2ncnc3[nH]ncc23)CCCN1C(=O)CNc1ccccc1S(=O)(=O)N1CCCCC1 (stereo not shown) [Compound 67] | < 100 nM | IC50 (Itk): 1000 to 10000 nM; IC50 (Tec): 100 to 999 nM |
| C[C@@H]1[C@H](Nc2ncnc3[nH]ccc23)CCCN1C(=O)CNc1cc(Cl)cc(Cl)c1 [Compound 89] | – | IC50 (Itk): 100 to 999 nM; IC50 (Tec): < 100 nM |
| CC1C(Nc2ncnc3[nH]ccc23)CCCN1C(=O)CNc1cc(Cl)cc(Cl)c1 (stereo not shown) [Compound 105] | – | IC50 (Itk): 100 to 999 nM; IC50 (Txk): 1000 to 10000 nM; IC50 (Lck): 100 to 999 nM; IC50 (Tec): 100 to 999 nM |
| O=C(CNc1ccccc1F)N1CCC[C@H](Nc2ncnc3[nH]ccc23)C1 [Compound 194] | > 10000 nM | – |
| O=C(CNc1ccccc1C(F)(F)F)N1CCC[C@H](Nc2ncnc3[nH]ncc23)C1 [Compound 195] | > 10000 nM | – |
| O=C(CNc1ccccc1C(F)(F)F)N1CCC[C@H](Nc2ncnc3[nH]ccc23)C1 [Compound 197] | > 10000 nM | – |
| O=C(CNc1ccc(C(F)(F)F)cc1)N1CCC[C@H](Nc2ncnc3[nH]ncc23)C1 [Compound 198] | > 10000 nM | – |
| O=C(CNc1ccccc1Cl)N1CCC[C@H](Nc2ncnc3[nH]ccc23)C1 [Compound 199] | > 10000 nM | – |
| O=C(CNc1cccc(Cl)c1)N1CCC[C@H](Nc2ncnc3[nH]ncc23)C1 [Compound 201] | 1000 to 10000 nM | – |
| O=C(CNc1ccccc1Cl)N1CCC[C@H](Nc2ncnc3[nH]ncc23)C1 [Compound 202] | > 10000 nM | – |
| O=C(CNc1ccccc1F)N1CCC[C@H](Nc2ncnc3[nH]ncc23)C1 [Compound 203] | > 10000 nM | – |
| O=C(CNc1ccc(C(F)(F)F)cc1)N1CCC[C@H](Nc2ncnc3[nH]ccc23)C1 [Compound 204] | > 10000 nM | – |
| O=C(CNc1ccc(F)cc1)N1CCC[C@H](Nc2ncnc3[nH]ncc23)C1 [Compound 205] | > 10000 nM | – |
| O=C([C@H](Nc1cc(Cl)cc(Cl)c1)C1CC1)N1CCC[C@H](Nc2ncnc3[nH]ccc23)C1 [Compound 206] | 1000 to 10000 nM | – |
| O=C([C@H](Nc1cc(Cl)cc(Cl)c1)C1CC1)N1CCC[C@@H](Nc2ncnc3[nH]ccc23)C1 [Compound 207] | 100 to 999 nM | – |
| C[C@@H](Nc1cc(Cl)cc(Cl)c1)C(=O)N1CCC[C@H](Nc2ncnc3[nH]ccc23)C1 [Compound 208] | 100 to 999 nM | – |

| Structure (SMILES) | IC50 (BTK) | also measured |
| --- | --- | --- |
| CN(c1ncnc2[nH]ncc12)[C@@H]1CCCN(C(=O)CNc2cc(Cl)cc(Cl)c2)C1 [Compound 211] | < 100 nM | – |
| CN(c1ncnc2[nH]ncc12)[C@H]1CCCN(C(=O)CNc2cc(Cl)cc(Cl)c2)C1 [Compound 212] | 100 to 999 nM | – |
| CCCN(CC(C)C)S(=O)(=O)c1ccccc1NCC(=O)N1CC[C@@H](C)[C@H](Nc2ncnc3[nH]ncc23)C1 [Compound 213] | > 10000 nM | – |
| O=C(CNc1cc(F)cc(Cl)c1)N1CCC[C@@H](Nc2ncnc3[nH]ncc23)C1 [Compound 216] | 100 to 999 nM | – |
| CC(C)CN(CC(C)C)S(=O)(=O)c1ccccc1NCC(=O)N1CCC[C@@H](Nc2ncnc3[nH]ccc23)C1 [Compound 218] | 100 to 999 nM | – |
| CC(C)CN(CC(C)C)S(=O)(=O)c1ccccc1NCC(=O)N1CCC[C@H](Nc2ncnc3[nH]ccc23)C1 [Compound 219] | > 10000 nM | – |
| O=C(CNc1ccccc1S(=O)(=O)N1CCCCC1)N1CCC[C@@H](Nc2ncnc3[nH]ccc23)C1 [Compound 221] | 100 to 999 nM | – |
| O=C([C@H](Nc1cc(F)cc(Cl)c1)C1CC1)N1CCC[C@H](Nc2ncnc3[nH]ncc23)C1 [Compound 223] | 1000 to 10000 nM | – |
| NC(=O)c1cnc2[nH]ccc2c1NC1CCCN(C(=O)NCc2cc(Cl)cc(Cl)c2)C1 (stereo not shown) [Compound 224] | < 100 nM | – |
| O=C(Nc1cc(Cl)cc(Cl)c1)C(=O)N1CCCC(Nc2ncnc3[nH]ccc23)C1 (stereo not shown) [Compound 225] | > 10000 nM | – |
| NC(=O)c1cnc2[nH]ccc2c1N[C@H]1CCCN(C(=O)CNc2cc(Cl)cc(Cl)c2)[C@H]1C(F)(F)F [Compound 226] | < 100 nM | IC50 (Itk): < 100 nM; IC50 (Txk): < 100 nM; IC50 (Tec): < 100 nM |
| NC(=O)c1cnc2[nH]ccc2c1N[C@@H]1CCCN(C(=O)CNc2cc(Cl)cc(Cl)c2)[C@@H]1C(F)(F)F [Compound 227] | < 100 nM | – |
| NC(=O)c1cnc2[nH]ccc2c1NC1CCCN(C(=O)CNc2cc(Cl)cc(Cl)c2)C1C(F)(F)F (stereo not shown) [Compound 228] | < 100 nM | – |
| NC(=O)c1cnc2[nH]ccc2c1NC1CCCN(C(=O)CNc2cc(F)cc(Cl)c2)C1 (stereo not shown) [Compound 229] | < 100 nM | – |
| CN1CCN(C(=O)c2cnc3[nH]ccc3c2N[C@@H]2CCCN(C(=O)CNc3cc(Cl)cc(Cl)c3)C2)CC1 [Compound 230] | 100 to 999 nM | – |
| Nc1ncnc2c1ccn2C1CCCN(C(=O)CNc2cc(Cl)cc(Cl)c2)C1 (stereo not shown) [Compound 231] | 1000 to 10000 nM | – |
| Nc1ncnc2c1cnn2C1CCCN(C(=O)CNc2cc(Cl)cc(Cl)c2)C1 (stereo not shown) [Compound 232] | > 10000 nM | – |
| Nc1ncnc2c1ncn2C1CCCN(C(=O)CNc2cc(Cl)cc(Cl)c2)C1 (stereo not shown) [Compound 233] | > 10000 nM | – |
